The target of this test is T1, ETB Receptor (Sus scrofa, UniProt P35463).
T1 construct: Porcine cerebellum was homogenized in 25 volumes (w/v) of 10 mM Hepes (pH 7.4); from tissue; host or cells: porcine cerebellum membranes
T1 sequence (P35463 27-443): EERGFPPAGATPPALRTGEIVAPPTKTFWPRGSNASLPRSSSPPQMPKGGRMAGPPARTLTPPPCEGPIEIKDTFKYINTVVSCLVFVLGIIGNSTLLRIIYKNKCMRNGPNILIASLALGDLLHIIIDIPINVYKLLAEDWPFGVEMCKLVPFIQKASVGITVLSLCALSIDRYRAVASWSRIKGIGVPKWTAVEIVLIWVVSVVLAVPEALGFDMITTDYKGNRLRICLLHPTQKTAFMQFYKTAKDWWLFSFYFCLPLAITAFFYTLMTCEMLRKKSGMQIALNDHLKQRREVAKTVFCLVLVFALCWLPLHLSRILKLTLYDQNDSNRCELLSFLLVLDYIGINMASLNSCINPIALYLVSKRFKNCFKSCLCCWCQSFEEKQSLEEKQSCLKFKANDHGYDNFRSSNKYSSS
As to the kind of experiment: ETB receptor binding assay: [125I]ET-3 binding to membranes. The note with it: test compound 1 µM; displacement of 0.1 nM [125I]ET-3; Porcine cerebellum membranes; 4 hours at 25 °C. How it is done: Preparation of membranes from Porcine cerebellum:
Porcine cerebellum was homogenized in 25 volumes (w/v) of 10 mM Hepes (pH 7.4) containing 0.25 M sucrose and protease inhibitors (3 mM EDTA, 0.1 mM PMSF, and 5 µg/ml Pepstatin A) by 3-10 sec polytron at 13,500 rpm with 10 sec intervals. The mixture was centrifuged at 1000xg for 10 min. The supernatant was collected and centrifuged at 30,000xg for 30 min. The precipitate was resuspended in Buffer A (20 mM Tris, 100 mM NaCl, 10 mM MgCl2, pH 7.4) containing the aforementioned protease inhibitors and centrifuged again. The final pellet was resuspended in Buffer A containing protease inhibitors and stored at -80°C until used. Protein content was determined by the Bio-Rad dye-binding protein assay.
[^125I]ET-3 binding to membranes:
Binding assays were performed in 96-well microtiter plates pretreated with 0.1% BSA. Membranes prepared from cells were diluted ∼100 fold in Buffer B (20 mM Tris, 100 mM NaCl, 10 mM MgCl2, pH 7.4, with 0.2% BSA, 0.1 mM PMSF, 5 µg/mL Pepstatin A, 0.025% bacitracin, and 3 mM EDTA) to a final concentration of 0.2 mg/mL of protein. In competition studies, membranes (0.02 mg) were incubated with 0.1 nM of [^125I]ET-3 in Buffer B (final volume: 0.2 mL) in the presence of increasing concentrations of unlabeled ET-3 or a test compound for 4 hours at 25 °C. After incubation, unbound ligands were separated from bound ligands by a vacuum filtration method using glass-fiber filter strips in PHD cell harvesters (Cambridge Technology, Inc., MA), followed by washing the filter strips with saline (1 mL) for three times. Nonspecific binding was determined in the presence of 1 µM ET-1. The per cent inhibition at a concentration of 1 µM is shown. […]
For `CCc1cccc(CC)c1NC(=O)CN1C[C@H](c2ccc3c(c2)OCO3)[C@@H](C(=O)O)[C@@H]1c1ccc(OC)cc1` (racemic) [Example 4, trans,trans-2-(4-Methoxyphenyl)-4-(1,3-benzodioxol-5-yl)-1-((2,6-diethyl)phenylaminocarbonylmethyl)-pyrrolidine-3-carboxylic acid], the inhibition (commonly the relative decrease from the control value, in per cent) at 1 µM worked out at 94%.
Under `CCc1cc(C)cc(CC)c1NC(=O)CN1C[C@H](c2ccc3c(c2)OCO3)[C@@H](C(=O)O)[C@@H]1c1ccc(OC)cc1` [Example 22, trans,trans-2-(4-methoxyphenyl)-4-(1,3-benzodioxol-5-yl)-1-((2,6-diethyl-4-methyl)phenylaminocarbonylmethyl)-pyrrolidine-3-carboxylic acid] stands 95.3%.
The same measure for `CCc1cc(Br)cc(CC)c1NC(=O)CN1C[C@H](c2ccc3c(c2)OCO3)[C@@H](C(=O)O)[C@@H]1c1ccc(OC)cc1` [Example 17, trans,trans-2-(4-methoxyphenyl)-4-(1,3-benzodioxol-5-yl)-1-((4-bromo-2,6-diethyl)phenylaminocarbonylmethyl)-pyrrolidine-3-carboxylic acid]: 97.1%; for `CCCOc1ccc([C@H]2[C@H](C(=O)O)[C@@H](c3ccc4c(c3)OCO4)CN2CC(=O)Nc2c(CC)cccc2CC)cc1` (racemic) [Example 5, trans,trans-2-(4-Propoxyphenyl)-4-(1,3-benzodioxol-5-yl)-1-((2,6-diethyl)phenylaminocarbonylmethyl)-pyrrolidine-3-carboxylic acid]: 96.5%; for `CCOc1ccc([C@H]2[C@H](C(=O)O)[C@@H](c3ccc4c(c3)OCO4)CN2CC(=O)Nc2c(CC)cccc2CC)cc1` [Example 23, (2R,3R,4S)-2-(4-ethoxyphenyl)-4-(1,3-benzodioxol-5-yl)-1-((2,6-diethyl)phenylaminocarbonylmethyl)-pyrrolidine-3-carboxylic acid]: 99.1%.
The molecule `CCc1cccc(CC)c1NC(=O)CN1C[C@H](c2cc(OC)c3c(c2)OCO3)[C@@H](C(=O)O)[C@@H]1c1ccc(OC)c(F)c1` (racemic) [Example 8, trans,trans-2-(3-Fluoro-4-methoxyphenyl)-4-(7-methoxy-1,3-benzodioxol-5-yl)-1-((2,6-diethyl)phenylaminocarbonylmethyl)-pyrrolidine-3-carboxylic acid] came in with an inhibition at 1 µM of 93.6%.
The same measure for `COc1ccc([C@H]2[C@H](C(=O)O)[C@@H](c3ccc4c(c3)OCO4)CN2CC(=O)Nc2c(C)cc(C)cc2C)cc1F` (racemic) [Example 2, trans,trans-2-(3-Fluoro-4-methoxyphenyl)-4-(1,3-benzodioxol-5-yl)-1-((2,4,6-trimethyl)phenylaminocarbonylmethyl)-pyrrolidine-3-carboxylic acid]: 91.5%.

The record behind these values is EP0888340B1, “4-(BENZO-1,3-DIOXOLYL)-PYRROLIDINE-3-CARBOXYLIC ACID DERIVATIVES AS ENDOTHELIN ANTAGONISTS” (Abbott Laboratories, priority 1996, dated 1997).
